Data on 29 molecules can be found in ChEMBL document CHEMBL1142681, “Three-dimensional structure-activity relationships of nonsteroidal ligands in complex with androgen receptor ligand-binding domain” (J Med Chem, 2005).

pKi: −log10 of the molar value.

The target in the assay is T1, Androgen receptor (Rattus norvegicus, UniProt P15207).
T1 sequence (P15207 whole entry): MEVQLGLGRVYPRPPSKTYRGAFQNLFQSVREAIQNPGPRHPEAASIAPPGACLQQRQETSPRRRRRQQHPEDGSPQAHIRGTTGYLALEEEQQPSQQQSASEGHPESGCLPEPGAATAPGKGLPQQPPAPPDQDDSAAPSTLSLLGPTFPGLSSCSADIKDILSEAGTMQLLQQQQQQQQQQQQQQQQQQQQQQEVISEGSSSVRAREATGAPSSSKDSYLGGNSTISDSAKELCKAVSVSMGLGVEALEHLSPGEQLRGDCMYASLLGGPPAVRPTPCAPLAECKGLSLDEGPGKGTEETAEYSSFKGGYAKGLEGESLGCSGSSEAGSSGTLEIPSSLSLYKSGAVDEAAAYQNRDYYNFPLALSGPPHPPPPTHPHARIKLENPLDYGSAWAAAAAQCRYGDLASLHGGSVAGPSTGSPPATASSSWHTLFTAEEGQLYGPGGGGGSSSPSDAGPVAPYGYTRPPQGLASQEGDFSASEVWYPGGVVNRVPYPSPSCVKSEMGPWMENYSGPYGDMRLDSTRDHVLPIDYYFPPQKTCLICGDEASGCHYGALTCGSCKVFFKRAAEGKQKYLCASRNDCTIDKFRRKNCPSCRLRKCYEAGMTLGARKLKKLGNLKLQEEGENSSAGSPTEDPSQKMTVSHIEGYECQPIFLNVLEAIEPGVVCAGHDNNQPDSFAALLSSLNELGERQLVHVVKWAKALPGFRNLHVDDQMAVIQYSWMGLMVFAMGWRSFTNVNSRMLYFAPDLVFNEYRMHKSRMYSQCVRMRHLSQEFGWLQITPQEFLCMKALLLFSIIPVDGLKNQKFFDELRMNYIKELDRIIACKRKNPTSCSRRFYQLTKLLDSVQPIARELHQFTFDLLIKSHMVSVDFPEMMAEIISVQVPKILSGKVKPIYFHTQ
Description: Inhibition of [3H]mibolerone binding to cytosolic androgen receptor of rat ventral prostate
In the case of `CCC(=O)N(C(=O)CC)c1ccc(SC[C@](C)(O)C(=O)Nc2ccc(C#N)c(C(F)(F)F)c2)cc1`, the pKi was 6.18.

In turn, `C[C@](O)(CSc1ccc(NC(=O)CCl)cc1)C(=O)Nc1ccc([N+](=O)[O-])c(C(F)(F)F)c1` showed a negative-log Ki (pKi) of 8.48. Molecule `CC(=O)Nc1ccc(S(=O)(=O)C[C@](C)(O)C(=O)Nc2ccc(C#N)c(C(F)(F)F)c2)cc1` showed a pKi of 7.80.

The molecule `CC(=O)Nc1ccc(SC[C@@](C)(O)C(=O)Nc2ccc(C#N)c(C(F)(F)F)c2)cc1` had a pKi of 5.86. As for `C[C@](O)(CSc1ccc(N)cc1)C(=O)Nc1ccc([N+](=O)[O-])c(C(F)(F)F)c1`, the pKi was 7.24. Next, `C[C@](O)(CS(=O)(=O)c1ccc(NC(=O)CCl)cc1)C(=O)Nc1ccc([N+](=O)[O-])c(C(F)(F)F)c1`: 8.16; `C[C@@](O)(CSc1ccc(NC(=O)CCl)cc1)C(=O)Nc1ccc([N+](=O)[O-])c(C(F)(F)F)c1`: 7.01; `C[C@@](O)(CS(=O)(=O)c1ccc(NC(=O)CCl)cc1)C(=O)Nc1ccc([N+](=O)[O-])c(C(F)(F)F)c1`: 6.63. `C[C@](O)(CSc1ccc(NS(C)(=O)=O)cc1)C(=O)Nc1ccc([N+](=O)[O-])c(C(F)(F)F)c1` had a pKi of 7.30. The molecule `C[C@](O)(CSc1ccc(NC(=O)C(F)(F)F)cc1)C(=O)Nc1ccc([N+](=O)[O-])c(C(F)(F)F)c1` had a negative-log Ki (pKi) of 8.59.

`CC(=O)Nc1ccc(SC[C@@](C)(O)C(=O)Nc2ccc([N+](=O)[O-])c(C(F)(F)F)c2)cc1` showed a negative-log Ki (pKi) of 6.91. In turn, `C[C@](O)(CBr)C(=O)Nc1ccc([N+](=O)[O-])cc1` gave a negative-log Ki (pKi) of 7.48. As to `C[C@](O)(CSc1ccc(N=C=S)cc1)C(=O)Nc1ccc2c(C(F)(F)F)cc(=O)oc2c1`, the pKi was 6.87. Next, `C[C@@](O)(CBr)C(=O)Nc1ccc2c(C(F)(F)F)cc(=O)oc2c1`: 6.61.

Turning to `C[C@](O)(CSc1ccccc1)C(=O)Nc1ccc2c(C(F)(F)F)cc(=O)oc2c1`, the negative-log Ki (pKi) was 6.88. For `C[C@](O)(CSc1ccc(N)cc1)C(=O)Nc1ccc2c(C(F)(F)F)cc(=O)oc2c1`, the pKi is 6.54. The molecule `CC(=O)Nc1ccc(SC[C@](C)(O)C(=O)Nc2ccc([N+](=O)[O-])c(C(F)(F)F)c2)cc1` had a negative-log Ki (pKi) of 8.54. The molecule `CC(=O)N(C(C)=O)c1ccc(SC[C@](C)(O)C(=O)Nc2ccc(C#N)c(C(F)(F)F)c2)cc1` showed a pKi of 6.98. On to `C[C@](O)(CS(=O)(=O)c1ccc(NS(C)(=O)=O)cc1)C(=O)Nc1ccc([N+](=O)[O-])c(C(F)(F)F)c1`, for which the negative-log Ki (pKi) is 7.82. Consider `C[C@](O)(CBr)C(=O)Nc1ccc([N+](=O)[O-])cc1[N+](=O)[O-]`, for which the pKi is 5.93. In turn, `C[C@](O)(CS(=O)(=O)c1ccc(N)cc1)C(=O)Nc1ccc(C#N)c(C(F)(F)F)c1` showed a negative-log Ki (pKi) of 7.49. In turn, `C[C@](O)(CBr)C(=O)Nc1ccc2c(C(F)(F)F)cc(=O)oc2c1` showed a pKi of 6.88. Turning to `CCC(=O)Nc1ccc(SC[C@](C)(O)C(=O)Nc2ccc(C#N)c(C(F)(F)F)c2)cc1`, the pKi is 7.57. Regarding `Cc1cc(=O)oc2cc(NC(=O)[C@@](C)(O)CSc3ccc(F)cc3)ccc12`, the negative logarithm of the Ki (pKi) is 7.04.

For the molecule `C[C@@](O)(CSc1ccc(N)cc1)C(=O)Nc1ccc([N+](=O)[O-])c(C(F)(F)F)c1`, the pKi is 6.28. On to `C[C@](O)(CS(=O)(=O)c1ccc(NC(=O)C(F)(F)F)cc1)C(=O)Nc1ccc([N+](=O)[O-])c(C(F)(F)F)c1`, for which the pKi was 8.21. Molecule `CC(=O)Nc1ccc(S(=O)(=O)C[C@@](C)(O)C(=O)Nc2ccc([N+](=O)[O-])c(C(F)(F)F)c2)cc1` gave a negative logarithm of the Ki (pKi) of 6.23. `C[C@](O)(CBr)C(=O)Nc1ccc(N)c(C(F)(F)F)c1`: the pKi is 7.09.

As for `CC(=O)Nc1ccc(SC[C@](C)(O)C(=O)Nc2ccc(C#N)c(C(F)(F)F)c2)cc1` [ACETOTHIOLUTAMIDE], the negative-log Ki (pKi) is 8.31.

One may read the pKi as −log10 of the Ki, conventionally taken in molar units. Read a low pKi as a high Ki.
